Reference: ChEMBL document CHEMBL4196009, “Novel vitexin-inspired scaffold against leukemia” (Eur J Med Chem, 2018)

The compounds below were run on KOPN-8 (assay: Antiproliferative activity against human KOPN8 cells after 72 hrs by CelTiter-Glo assay). Conditions: KOPN-8, 72 h.
Type: functional, cell-based
With `C=CCNC(=O)n1c(-c2ccc(OC)cc2)cc(=O)c2c(OC)cc(OC)cc21` the EC50 was 12 µM.
`COc1ccc(-c2cc(=O)c3c(OC)cc(OC)cc3n2S(=O)(=O)c2ccc([N+](=O)[O-])cc2)cc1` gave an EC50 of 17.3 µM.
`COc1cc(OC)c2c(=O)cc(C(=O)Nc3ccccc3S(C)(=O)=O)[nH]c2c1` was tested, and the EC50 was greater than 39.7 µM.
Compound `COc1ccc(-c2cc(=O)c3c(OC)cc(OC)cc3n2S(=O)(=O)Cc2ccccc2)cc1` has an EC50 greater than 34.5 µM.
Compound `COc1cc(OC)c2c(=O)cc(C(=O)Nc3ccc(S(=O)(=O)c4ccccc4)cc3)[nH]c2c1` has an EC50 greater than 70.7 µM.
Compound `COc1ccc(-c2[nH]c3cc(OC)cc(OC)c3c(=O)c2I)cc1` has an EC50 of 49.4 µM.
`COc1ccc(-c2cc(=O)c3c(OC)cc(OC)cc3n2S(=O)(=O)c2cccc(Br)c2)cc1` showed an EC50 greater than 58.6 µM.
`COc1cc(OC)c2c(=O)cc(C(=O)Nc3cc(C(F)(F)F)ccc3Oc3ccccc3OC)[nH]c2c1` was tested, and the EC50 was greater than 53.4 µM.
Compound `O=c1cc(-c2ccccc2)oc2cc(O)c(O)c(O)c12` [BAICALEIN] has an EC50 of 16 µM.
Work on `COc1ccc(-c2cc(=O)c3c(OC)cc(OC)cc3n2S(=O)(=O)c2ccc(Cl)cc2)cc1` yielded an EC50 greater than 34.5 µM.
`COc1ccc(-c2cc(=O)c3c(OC)cc(OC)cc3n2S(=O)(=O)c2c(C(C)C)cc(C(C)C)cc2C(C)C)cc1` was tested, and the EC50 was greater than 341 µM.

Each compound was assayed on SUP-B15 (assay: Antiproliferative activity against human SUP-B15 cells after 72 hrs by CelTiter-Glo assay). Conditions: SUP-B15, 72 h.
Type: functional, cell-based
`Nc1ccc2nc(C(=O)O)cc(O)c2c1` showed an EC50 of 46 µM.
Work on `C=CCNC(=O)n1c(-c2ccc(OC)cc2)cc(=O)c2c(OC)cc(OC)cc21` yielded an EC50 of 16 µM.
For `COc1ccc(-c2cc(=O)c3c(OC)cc(OC)cc3n2S(=O)(=O)c2ccc([N+](=O)[O-])cc2)cc1`, the EC50 was 17.1 µM.
With `COc1cc(OC)c2c(=O)cc(C(=O)Nc3ccccc3S(C)(=O)=O)[nH]c2c1` the EC50 was greater than 39.7 µM.
In the case of `COc1ccc(-c2cc(=O)c3c(OC)cc(OC)cc3n2S(=O)(=O)Cc2ccccc2)cc1`, the EC50 is reported as greater than 34.5 µM.
`COc1cc(OC)c2c(=O)cc(C(=O)Nc3ccc(S(=O)(=O)c4ccccc4)cc3)[nH]c2c1` gave an EC50 greater than 70.7 µM.
With `COc1ccc(-c2[nH]c3cc(OC)cc(OC)c3c(=O)c2I)cc1` the EC50 was greater than 86.2 µM.
`COc1ccc(-c2cc(=O)c3c(OC)cc(OC)cc3n2S(=O)(=O)c2cccc(Br)c2)cc1` gave an EC50 greater than 58.6 µM.
With `COc1cc(OC)c2c(=O)cc(C(=O)Nc3cc(C(F)(F)F)ccc3Oc3ccccc3OC)[nH]c2c1` the EC50 was greater than 53.4 µM.
In the case of `O=c1cc(-c2ccccc2)oc2cc(O)c(O)c(O)c12` [BAICALEIN], the EC50 is reported as 103 µM.
Work on `COc1ccc(-c2cc(=O)c3c(OC)cc(OC)cc3n2S(=O)(=O)c2ccc(Cl)cc2)cc1` yielded an EC50 greater than 34.5 µM.
Compound `COc1ccc(-c2cc(=O)c3c(OC)cc(OC)cc3n2S(=O)(=O)c2c(C(C)C)cc(C(C)C)cc2C(C)C)cc1` has an EC50 of 43.3 µM.

Each compound was assayed on HepG2 (assay: Antiproliferative activity against human HepG2 cells after 72 hrs by CelTiter-Glo assay). Conditions: HepG2, 72 h.
Type: functional, cell-based
`C=CCNC(=O)n1c(-c2ccc(OC)cc2)cc(=O)c2c(OC)cc(OC)cc21` gave an EC50 greater than 20 µM.
`COc1ccc(-c2cc(=O)c3c(OC)cc(OC)cc3n2S(=O)(=O)c2ccc([N+](=O)[O-])cc2)cc1` gave an EC50 greater than 29.3 µM.
`COc1cc(OC)c2c(=O)cc(C(=O)Nc3ccccc3S(C)(=O)=O)[nH]c2c1` was tested, and the EC50 was greater than 39.7 µM.
Work on `COc1ccc(-c2cc(=O)c3c(OC)cc(OC)cc3n2S(=O)(=O)Cc2ccccc2)cc1` yielded an EC50 greater than 34.5 µM.
`COc1cc(OC)c2c(=O)cc(C(=O)Nc3ccc(S(=O)(=O)c4ccccc4)cc3)[nH]c2c1` gave an EC50 greater than 70.7 µM.
Compound `COc1ccc(-c2[nH]c3cc(OC)cc(OC)c3c(=O)c2I)cc1` has an EC50 greater than 86.2 µM.
`COc1ccc(-c2cc(=O)c3c(OC)cc(OC)cc3n2S(=O)(=O)c2cccc(Br)c2)cc1` was tested, and the EC50 was greater than 58.6 µM.
In the case of `COc1cc(OC)c2c(=O)cc(C(=O)Nc3cc(C(F)(F)F)ccc3Oc3ccccc3OC)[nH]c2c1`, the EC50 is reported as 10.7 µM.
For `O=c1cc(-c2ccccc2)oc2cc(O)c(O)c(O)c12` [BAICALEIN], the EC50 was 60 µM.
In the case of `COc1ccc(-c2cc(=O)c3c(OC)cc(OC)cc3n2S(=O)(=O)c2ccc(Cl)cc2)cc1`, the EC50 is reported as greater than 34.5 µM.
`COc1ccc(-c2cc(=O)c3c(OC)cc(OC)cc3n2S(=O)(=O)c2c(C(C)C)cc(C(C)C)cc2C(C)C)cc1` was tested, and the EC50 was greater than 341 µM.

The compounds below were run on SEM cells (assay: Antiproliferative activity against human SEM cells after 72 hrs by CelTiter-Glo assay). Conditions: not given.
Type: functional, cell-based
In the case of `Nc1ccc2nc(C(=O)O)cc(O)c2c1`, the EC50 is reported as 29 µM.
In the case of `C=CCNC(=O)n1c(-c2ccc(OC)cc2)cc(=O)c2c(OC)cc(OC)cc21`, the EC50 is reported as 12 µM.
`COc1cc(OC)c2c(=O)cc(C(=O)Nc3cc(C(F)(F)F)ccc3Oc3ccccc3OC)[nH]c2c1` was tested, and the EC50 was 10.8 µM.

Each compound was assayed on BJ (assay: Antiproliferative activity against human BJ cells after 72 hrs by CelTiter-Glo assay). Conditions: not given.
Type: cell-based
Compound `Nc1ccc2nc(C(=O)O)cc(O)c2c1` has an EC50 of 371 µM.
Compound `C=CCNC(=O)n1c(-c2ccc(OC)cc2)cc(=O)c2c(OC)cc(OC)cc21` has an EC50 of 74 µM.
`COc1ccc(-c2cc(=O)c3c(OC)cc(OC)cc3n2S(=O)(=O)c2ccc([N+](=O)[O-])cc2)cc1` gave an EC50 greater than 29.3 µM.
`COc1cc(OC)c2c(=O)cc(C(=O)Nc3ccccc3S(C)(=O)=O)[nH]c2c1` gave an EC50 greater than 39.7 µM.
`COc1ccc(-c2cc(=O)c3c(OC)cc(OC)cc3n2S(=O)(=O)Cc2ccccc2)cc1` was tested, and the EC50 was greater than 34.5 µM.
`COc1cc(OC)c2c(=O)cc(C(=O)Nc3ccc(S(=O)(=O)c4ccccc4)cc3)[nH]c2c1` gave an EC50 greater than 70.7 µM.
`COc1ccc(-c2[nH]c3cc(OC)cc(OC)c3c(=O)c2I)cc1` gave an EC50 greater than 86.2 µM.
For `COc1ccc(-c2cc(=O)c3c(OC)cc(OC)cc3n2S(=O)(=O)c2cccc(Br)c2)cc1`, the EC50 was greater than 58.6 µM.
`COc1cc(OC)c2c(=O)cc(C(=O)Nc3cc(C(F)(F)F)ccc3Oc3ccccc3OC)[nH]c2c1` showed an EC50 greater than 53.4 µM.
`O=c1cc(-c2ccccc2)oc2cc(O)c(O)c(O)c12` [BAICALEIN] gave an EC50 greater than 86.2 µM.
With `COc1ccc(-c2cc(=O)c3c(OC)cc(OC)cc3n2S(=O)(=O)c2ccc(Cl)cc2)cc1` the EC50 was greater than 34.5 µM.
Compound `COc1ccc(-c2cc(=O)c3c(OC)cc(OC)cc3n2S(=O)(=O)c2c(C(C)C)cc(C(C)C)cc2C(C)C)cc1` has an EC50 greater than 341 µM.
